The record followed here is ChEMBL document CHEMBL1201862, “PubChem BioAssay data set” (2004).

The structures appear in SMILES notation.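 Dose response: 5 concentrations. Exposure: 48 h. Format: 96-well plates. Endpoint: linear interpolation; highest concentration if not reached. GI50 is the concentration that inhibits growth by half.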 Active and inactive are the calls of the source. Cut-off read from the data, not from the text of the source: active = GI50 up to about 1.1 µM and inactive = higher. A value given as a limit tells only on which side of the number the result lay.

Among the test systems are 786-0; CCRF-CEM; HL-60; HOP-62; HT-29; Hs-578T; IGROV-1; M14; MCF7; MDA-MB-435; MDA-N; NCI-H226; NCI-H460; SF-539; SK-OV-3; T47D; BT-549; RXF 393; TK-10; SNB-75.
Common to all, as to assay: inhibition of tumour cell growth, NCI panel, 48 h

Consider `COc1ccc(C2CC(c3ccccc3)=Nc3c(-c4ccccc4)nnn32)cc1` (stereo not drawn), for which the GI50 in the experiment with 786-0 was > 100 µM (inactive); in the experiment on CCRF-CEM it was > 100 µM (inactive); in the experiment on HL-60, > 100 µM (inactive); in the experiment on HOP-62, 96.2 µM (inactive); in the experiment with HT-29, > 100 µM (inactive); in the experiment with Hs-578T, 51.2 µM (inactive). In addition, the GI50 with IGROV-1 was > 100 µM (inactive); in the experiment on M14, > 100 µM (inactive); in the experiment on MCF7 it was > 100 µM (inactive); in the experiment on MDA-MB-435 it was 77.8 µM (inactive); in the experiment with MDA-N it was > 100 µM (inactive); in the experiment with NCI-H226 it was > 100 µM (inactive). The GI50 was > 100 µM (inactive) with NCI-H460, 85.3 µM (inactive) in the experiment on SF-539, > 100 µM (inactive) in the experiment with SK-OV-3 and 10 µM (inactive) in the experiment on T47D.
On to `N#Cc1ccc(Oc2nc3ccccc3nc2-c2ccccc2)cc1`, for which the GI50 in the experiment with 786-0, in the experiment with BT-549, in the experiment with CCRF-CEM, in the experiment with HL-60, in the experiment on HOP-62 and in the experiment on HT-29 was > 100 µM (inactive) in each case. Further, the GI50 in the experiment with Hs-578T, in the experiment on IGROV-1, in the experiment on MCF7, in the experiment on MDA-MB-435, in the experiment with MDA-N and in the experiment with NCI-H226 was > 100 µM (inactive) each time. Moreover, the GI50 with NCI-H460, with RXF 393, in the experiment with SK-OV-3 and with TK-10 was > 100 µM (inactive) each time.
As for `COc1cc(S(=O)(=O)Nc2nc(-c3ccc(N4C(=O)/C(=C/c5ccccc5[N+](=O)[O-])N=C4c4ccccc4)cc3)cs2)ccc1Cl`, the GI50 in the experiment with 786-0 is > 100 µM (inactive); with BT-549 it was 20 µM (inactive); in the experiment on CCRF-CEM it was > 100 µM (inactive); with HL-60, 44.3 µM (inactive); in the experiment with HOP-62, 87.1 µM (inactive); with HT-29 it was > 100 µM (inactive). Moreover, the GI50 was 41.6 µM (inactive) in the experiment on IGROV-1; > 100 µM (inactive) with M14; 34.6 µM (inactive) in the experiment on MCF7; 67.1 µM (inactive) in the experiment on MDA-MB-435; > 100 µM (inactive) with MDA-N; > 100 µM (inactive) in the experiment with NCI-H226. Besides, the GI50 in the experiment with NCI-H460 is > 100 µM (inactive); with RXF 393, 63.5 µM (inactive); with SF-539 it was > 100 µM (inactive); in the experiment on SK-OV-3 it was 95.7 µM (inactive); with SNB-75 it was > 100 µM (inactive); in the experiment on T47D, 55.5 µM (inactive). For the same compound, the GI50 with TK-10 was > 100 µM (inactive).
In the case of `C=C[C@]1(O)CCC[C@]2(C)C(=O)CCC12C` (stereo partly drawn), the GI50 in the experiment with 786-0, in the experiment on HL-60, in the experiment on HOP-62, with HT-29, with Hs-578T and with IGROV-1 was > 100 µM (inactive) each time. Further, the GI50 with M14, with MCF7, in the experiment with MDA-MB-435, with MDA-N, with NCI-H226 and with NCI-H460 was > 100 µM (inactive) throughout. The GI50 with RXF 393, in the experiment with SF-539, with SK-OV-3 and with T47D was > 100 µM (inactive) each time.
As for `N#Cc1nsnc1-c1nc(-c2nsnc2C#N)nc(-c2nsnc2C#N)n1`, the GI50 was 61.9 µM (inactive) with 786-0; > 100 µM (inactive) in the experiment on BT-549; 76.6 µM (inactive) in the experiment on HL-60; > 100 µM (inactive) in the experiment on HOP-62; > 100 µM (inactive) in the experiment with HT-29; 37.7 µM (inactive) with Hs-578T. Besides, the GI50 with IGROV-1, in the experiment with MCF7, with MDA-MB-435, in the experiment with MDA-N, in the experiment with NCI-H226 and with NCI-H460 was > 100 µM (inactive) each time. In addition, the GI50 with RXF 393 was 63.8 µM (inactive); in the experiment with SF-539, > 100 µM (inactive); in the experiment with SNB-75, > 100 µM (inactive); in the experiment on TK-10, 71.4 µM (inactive).
With `O=C1OC(OC/C(Br)=C(/Br)COC2OC(=O)C(Cl)=C2Cl)C(Cl)=C1Cl` (stereo not drawn), the GI50 was 5.82 µM (inactive) with 786-0; 1.71 µM (inactive) in the experiment with CCRF-CEM; 1.71 µM (inactive) in the experiment with HL-60; 11.7 µM (inactive) in the experiment on HOP-62; 4.93 µM (inactive) in the experiment with HT-29; 13 µM (inactive) in the experiment on Hs-578T. Also, the GI50 in the experiment on IGROV-1 is 13.7 µM (inactive); with M14, 6.79 µM (inactive); with MCF7 it was 12.9 µM (inactive); with MDA-MB-435 it was 9.71 µM (inactive); with MDA-N, 8.04 µM (inactive); with NCI-H226 it was 26.2 µM (inactive). Also, the GI50 in the experiment on NCI-H460 is 19.6 µM (inactive); in the experiment on RXF 393, 5.09 µM (inactive); in the experiment on SF-539, 21.8 µM (inactive); with SK-OV-3 it was 26.9 µM (inactive); in the experiment on SNB-75 it was 18.7 µM (inactive); in the experiment on T47D it was 9.95 µM (inactive). In addition, in the experiment on TK-10, the GI50 was 13.5 µM (inactive).
Regarding `CCOP(=O)(OCC)[C@H](O)c1ccsc1`, the GI50 with 786-0, in the experiment with BT-549, with CCRF-CEM, in the experiment with HOP-62, with HT-29 and with IGROV-1 was > 100 µM (inactive) in each case. Also, the GI50 with M14, in the experiment with MCF7, in the experiment with MDA-MB-435, with MDA-N, in the experiment with NCI-H226 and with NCI-H460 was > 100 µM (inactive) in each case. Besides, the GI50 with RXF 393, in the experiment on SF-539, in the experiment with SK-OV-3, with SNB-75, in the experiment with T47D and in the experiment with TK-10 was > 100 µM (inactive) each time.
For the compound `Cc1nc2cc3ccccc3cc2[nH]c1=O`, the GI50 with 786-0 is 44.9 µM (inactive); in the experiment on BT-549 it was > 100 µM (inactive); in the experiment with CCRF-CEM it was 51.2 µM (inactive); with HL-60, > 100 µM (inactive); in the experiment with HOP-62 it was 71.6 µM (inactive); with HT-29 it was > 100 µM (inactive). Further, the GI50 in the experiment with IGROV-1 was 47.9 µM (inactive); with M14, > 100 µM (inactive); in the experiment on MCF7 it was 30.2 µM (inactive); in the experiment on MDA-MB-435, > 100 µM (inactive); in the experiment with MDA-N, > 100 µM (inactive); in the experiment on NCI-H226 it was 53.2 µM (inactive). Also, the GI50 was 61.1 µM (inactive) in the experiment on NCI-H460; 47.5 µM (inactive) in the experiment on RXF 393; 53.2 µM (inactive) with SF-539; > 100 µM (inactive) in the experiment with SK-OV-3; 24.5 µM (inactive) with SNB-75; 55.2 µM (inactive) in the experiment on T47D. The GI50 with TK-10 was 80.2 µM (inactive).
Turning to `CCOC(=O)C(=O)N/N=C1\C(=O)Nc2ccccc21`, the GI50 in the experiment on 786-0, with BT-549, with CCRF-CEM, in the experiment on HOP-62, in the experiment with IGROV-1 and in the experiment with M14 was > 100 µM (inactive) throughout. Also, the GI50 in the experiment on MCF7, in the experiment on MDA-MB-435, in the experiment with MDA-N, with NCI-H226, in the experiment on NCI-H460 and in the experiment on RXF 393 was > 100 µM (inactive) throughout. The GI50 in the experiment on SK-OV-3, in the experiment on SNB-75, in the experiment on T47D and in the experiment on TK-10 was > 100 µM (inactive) in each case.
Turning to `O=c1cc(-c2ccccc2F)[nH]c2cc3c(cc12)OCO3`, the GI50 with 786-0 is 0.182 µM (active); in the experiment with CCRF-CEM, 0.129 µM (active); in the experiment with HL-60, 0.0454 µM (active); with HOP-62, 0.19 µM (active); in the experiment with HT-29 it was 0.0942 µM (active); with Hs-578T it was 0.0728 µM (active). In addition, the GI50 is 0.118 µM (active) in the experiment on IGROV-1; 0.0528 µM (active) in the experiment with M14; 0.0953 µM (active) in the experiment with MCF7; < 0.01 µM (active) with MDA-MB-435; < 0.01 µM (active) with MDA-N; 0.184 µM (active) in the experiment with NCI-H226. Further, the GI50 in the experiment on NCI-H460 was 0.107 µM (active); with RXF 393, 0.0813 µM (active); in the experiment with SF-539, 0.0702 µM (active); with SK-OV-3, 0.201 µM (active); in the experiment on SNB-75, 0.247 µM (active); with T47D, > 100 µM (inactive). Further, the GI50 in the experiment on TK-10 is 2.88 µM (inactive).
`O=C(NC(C(F)(F)F)(C(F)(F)F)P(=O)(c1ccccc1)c1ccccc1)C(C(F)(F)F)C(F)(F)F`: the GI50 is 18.9 µM (inactive) in the experiment on 786-0; 41.8 µM (inactive) in the experiment on CCRF-CEM; 26.5 µM (inactive) with HL-60; > 100 µM (inactive) in the experiment on HOP-62; 14.5 µM (inactive) with HT-29; 54 µM (inactive) in the experiment with Hs-578T. Further, the GI50 was 25.7 µM (inactive) in the experiment with IGROV-1; 17.1 µM (inactive) in the experiment on M14; 26.2 µM (inactive) in the experiment on MCF7; 18.7 µM (inactive) in the experiment on MDA-MB-435; 20.4 µM (inactive) in the experiment on MDA-N; 68.9 µM (inactive) in the experiment with NCI-H226. Also, the GI50 with NCI-H460 is 42.3 µM (inactive); in the experiment with RXF 393 it was 20.2 µM (inactive); with SF-539 it was 22.8 µM (inactive); in the experiment with SK-OV-3, > 100 µM (inactive); in the experiment on SNB-75 it was 20.8 µM (inactive); in the experiment on T47D it was > 100 µM (inactive). In addition, in the experiment on TK-10, the GI50 was 37.2 µM (inactive).
